# Earlier results as cited in article PMC9069326 (RSC Advances, 2019).
# Target: Gal-3 (Homo sapiens, UniProt P17931)
# Conditions: cited from earlier work
# Gal-3, sequence (P17931 whole entry, species assumed): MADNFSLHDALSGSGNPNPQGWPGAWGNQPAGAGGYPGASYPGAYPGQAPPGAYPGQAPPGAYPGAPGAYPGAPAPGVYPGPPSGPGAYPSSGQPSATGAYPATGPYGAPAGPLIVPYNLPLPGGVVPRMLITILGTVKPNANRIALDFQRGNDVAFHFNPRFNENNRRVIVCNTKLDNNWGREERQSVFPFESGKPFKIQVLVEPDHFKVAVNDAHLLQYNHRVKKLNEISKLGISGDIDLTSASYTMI
row,Molecule,Kd [mM]
1,"O=C[C@H](O)[C@@H](O)[C@@H](O)[C@H](O)CO [Gal, β-Galactose]",~10
2,Galβ1-4GlcNAc [LacNAc],0.07
